Results published in patent US11027022B2, “Conjugates and conjugating reagents” (priority 2016, dated 2021).

System: Karpas-299 cells (T-anaplastic large cell lymphoma, ALCL)
Assay: Karpas-299 mouse xenograft study
Format: in vivo, CB17-SCID mice
Conditions: single i.v. injection, 1 mg/kg, groups of eight mice
Method: Healthy female CB17-SCID mice (CBySmn.CB17-Prkdcscida, Charles River Laboratories) with an average body weight of 17.5 g were used for cell inoculation (Day 0). 24 to 72 h prior to tumour cell injection, the mice were […] (1.44 Gy, ^60Co). The animals were maintained in SPF health status according to the FELASA guidelines in housing rooms under controlled environmental conditions.
Tumours were induced by subcutaneous injection of 10^7 Karpas-299 cells (T-anaplastic large cell lymphoma, ALCL) in 200 μL of RPMI 1640 into the right flank. Tumours were measured twice a week with callipers, and the volume was estimated using the formula: […]
Fourteen days after tumour implantation (Day 14), the animals were randomised into groups of eight mice using Vivo Manager® software (233 mm^3 mean tumour volume) and treatment was initiated. The animals from the vehicle group received a single intravenous (i.v.) injection of PBS. The treated groups were dosed with a single i.v. injection of ADC at either 0.5 mg/kg or 1 mg/kg.
Treatment tolerability was assessed by bi-weekly body weight measurement and daily observation for clinical signs of treatment-related side effects. Mice were euthanized when a humane endpoint was reached (e.g. 1,600 mm^3 tumour volume) or after a maximum of 6 weeks post-dosing.

Substance: Adcetris®: commercially-available Adcetris® conjugate, comparative to the brentuximab-drug conjugates [reference compound]
- complete responses (total reduction of tumour volume to zero): 2 animals
- mean tumour volume (result in words): increase in mean tumour volume
